Source: BindingDB's records for patent US10010539 (Merck Sharp & Dohme, 2018)

Target: T1, Orexin receptor type 2 (Homo sapiens, UniProt O43614)
T1 sequence (O43614 whole entry): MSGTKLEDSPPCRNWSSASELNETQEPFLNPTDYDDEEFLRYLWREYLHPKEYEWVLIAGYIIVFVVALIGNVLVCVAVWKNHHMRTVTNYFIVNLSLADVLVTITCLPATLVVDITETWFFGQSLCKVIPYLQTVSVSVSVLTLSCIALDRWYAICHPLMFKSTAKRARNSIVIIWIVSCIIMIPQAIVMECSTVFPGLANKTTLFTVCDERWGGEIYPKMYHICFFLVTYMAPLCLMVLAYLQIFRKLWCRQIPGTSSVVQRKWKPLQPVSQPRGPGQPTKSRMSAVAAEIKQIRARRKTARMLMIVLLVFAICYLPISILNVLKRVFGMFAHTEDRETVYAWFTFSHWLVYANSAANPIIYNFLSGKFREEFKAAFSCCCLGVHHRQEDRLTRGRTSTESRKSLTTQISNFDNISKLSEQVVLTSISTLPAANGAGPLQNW
Experiment: FLIPR Ca2+ Flux Assay
Experimental: For intracellular calcium measurements, Chinese hamster ovary (CHO) cells expressing the rat orexin-1 receptor or the human orexin-2 receptor, are grown in Iscove's modified DMEM containing 2 mM L-glutamine, […], 1% hypoxanthine-thymidine supplement, 100 U/ml penicillin, 100 μg/ml streptomycin and 10% heat-inactivated fetal calf serum (FCS). The cells are seeded at 20,000 cells/well into Becton-Dickinson black 384-well clear bottom sterile plates coated with poly-D-lysine. All reagents were from GIBCO-Invitrogen Corp. The seeded plates are incubated overnight at 37° C. and 5% CO2. Ala-6,12 human orexin-A as the agonist is prepared as a 1 mM stock solution in 1% bovine serum albumin (BSA) and diluted in assay buffer (HBSS containing 20 mM HEPES, 0.1% BSA and 2.5 mM probenecid, pH7.4) for use in the assay at a final concentration of 70 pM. […] Within the Fluorescent Imaging Plate Reader (FLIPR, Molecular Devices), test compounds are added to the plate in a volume of 25 μl, incubated for 5 min and finally 25 μl of agonist is added. Fluorescence is measured for each well at 1 second intervals for 5 minutes and the height of each fluorescence peak is compared to the height of the fluorescence peak induced by 70 pM Ala-6,12 orexin-A with buffer in place of antagonist.

CCOc1ccccc1C(=O)N1C[C@H](n2ncc(C(C)(C)O)n2)CC[C@H]1C [US10010539, 12]
IC50: 31.3 nM

CC(C)Oc1ncccc1C(=O)N1C[C@H](n2ncc(C(C)(C)O)n2)CC[C@H]1C [US10010539, 15]
IC50: 32.6 nM
